# Laboratory results reported in PMC6211292 (Journal of the American Chemical Society, 2018).
# Key:
# PtmO5 [1] = target: T1, PtmO5 (Streptomyces platensis, UniProt D8L2V0); assay: type I difference spectra titration, nonlinear regression of A390-A422; format: binding; settings: 0-5 μM ligand; type I shift 422 to 390 nm; heme site
# T1 sequence (D8L2V0 1-430): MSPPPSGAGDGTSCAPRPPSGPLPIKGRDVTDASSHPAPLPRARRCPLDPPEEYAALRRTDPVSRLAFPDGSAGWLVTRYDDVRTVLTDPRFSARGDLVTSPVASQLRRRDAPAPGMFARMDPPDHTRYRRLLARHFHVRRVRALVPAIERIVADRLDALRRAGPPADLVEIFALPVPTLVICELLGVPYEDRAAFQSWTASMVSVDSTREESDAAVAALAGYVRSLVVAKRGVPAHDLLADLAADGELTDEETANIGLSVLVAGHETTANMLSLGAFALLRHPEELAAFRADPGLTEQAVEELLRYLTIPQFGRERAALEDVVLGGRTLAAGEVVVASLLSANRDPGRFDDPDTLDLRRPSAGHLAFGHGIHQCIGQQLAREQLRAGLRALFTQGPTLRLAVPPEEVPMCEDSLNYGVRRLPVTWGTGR
# PtmO5 [2] = target: T1, PtmO5; assay: type I binding spectra; settings: heme site, poor solubility of 4
Kd (PtmO5 [1]),Kd (PtmO5 [2]),SMILES
860 ± 70 nM,,"C[C@@]12CCC[C@@](C)(C(=O)O)[C@H]1CC[C@@]13C[C@@H](CC[C@H]12)[C@](C)(O)C3 [compound 1, (16R)-hydroxy-ent-kauran-19-oic acid]"
,750 ± 190 nM,"C=C1C[C@@]23CC[C@H]4[C@@](C)(CCC[C@@]4(C)C(=O)O)[C@@H]2CC[C@@H]1C3 [compound 4, ent-kaur-16-en-19-oic acid]"
